Data published in patent publication US20250082595A1, “METHODS AND COMPOSITIONS FOR TREATING PARKINSON’S DISEASE” (priority 2022, published 2025).
Values joined by “and” are separate entries in the source; they are usually repeats but may differ in a detail not shown here. Equal entries are not always repeated.

Experiments:
[1] = Plasma exposure (AUC) of LD and CD after SC infusion, oral IR tablet, and SC + oral coadministration of LD/CD; format: in vivo
Excerpt: A test was run in order to assess the plasma exposure of levodopa (LD) following the coadministration of LD and carbidopa (CD) in both subcutaneous (SC) and oral administrations. Accordingly, results obtained from a combined SC+oral administration were compared to results obtained from SC administration alone and from oral administration alone. An additive plasma exposure and PK profile was expected, i.e., it was expected that the SC+oral coadministration would provide results equal to the additive results of the SC and oral administrations, when each was administered separately.
16 healthy subjects (18-50 years) were treated in a crossover manner, i.e., sequentially, with a washout period of 6 days between the following two treatments: • Treatment A: A total dose of 180/22.5 mg LD/CD (formulation A) was administered by SC infusion over the course of 8 hours, at a steady infusion rate. • Treatment B: An immediate release (IR) tablet of 100/25 mg LD/CD was administered orally at time 0 h.
Following a 32 hour washout period, the same 16 healthy subjects were administered with LC/CD both orally and subcutaneously according to the following treatment: • Treatment C: A dose of 153.6/19.2 LD/CD (formulation A) was administered by SC infusion over the course of 8 hours, at a steady infusion rate, combined with a single co-administration of an oral IR LD/CD 100/25 mg tablet, 4 hours after the initiation of the infusion. Total LD/CD dose: 253.6/44.2 mg.
The normalized AUC0-8 of LD and CD of Treatment C, resulting from the combined SC and oral treatment, as described above, was calculated and compared to the sum of the normalized LD and CD AUCs obtained from Treatment A (AUC0-8 resulting from 8 h SC infusion) and Treatment B (AUC0-4 resulting from one IR oral tablet).

[2] = Experimental: The objective of this study was to determine the pharmacokinetics (PK) of levodopa (LD) in domestic pigs following continuous subcutaneous (SC) infusion of a levodopa prodrug, exemplified using LD-Tyr, administered concomitantly with oral Levodopa.
Table 6 provides the LD-Tyr formulation tested in this study: […]
The study consisted of 3 dosing sessions in which 5 female pigs (Swine/Landrace×large White, ˜40-50 kg each) were treated with the LD-Tyr solution of Table 6 and/or Sinemet JR oral tablets (CD/LD 25/100 mg tablet) in a cross-over design with up to 4-day washout period between dosing sessions, as detailed in the following tables:
As presented in Tables 7 and 8 above, the study included the following three test groups: • G1—received only SC LD-Tyr (600 mg total daily dose); • G2—received only oral LD (300 mg total daily dose); and • G3—received both SC LD-Tyr (600 mg total daily dose) and oral LD (200 mg total daily dose).
Blood samples for the determination of LD-Tyr (in groups 1 and 3), as well as LD and CD plasma levels (in all groups) were collected from the pigs at the following timepoints: • 0 (pre-dose), 30 min, 1 h, 2 h, 3 h, 4 h, 4.5 h, 5 h, 6 h, 7 h, 8 h, 8.5 h, 9 h, 10 h, 11 h, 13 h, 15 h 18 h following treatment initiation. Tablets were administered before blood collection (time 0, 4 and 8 h).
Plasma samples were analyzed for concentration of LD-Tyr (groups 1 and 3), as well as LD and CD (for all groups) using a qualified LC-MS/MS analytical method.
PK parameters (at least Cmax, tmax, t1/2, AUC) for LD-Tyr, LD and CD were calculated by noncompartmental methods using appropriate software (e.g. Phoenix® WinNonlin®). Individual and mean was calculated for quantitative parameters.
The LD exposure obtained from the SC infusion is considered to be the baseline.

[3] = geomean of group, Treatment A SC 8 h, normalized × 0.853
[4] = geomean of group, oral IR tablet 100/25 mg LD/CD

C[C@@](Cc1ccc(O)c(O)c1)(NN)C(=O)O [CD, carbidopa]
CD: 4. Treatment C AUC (0-8) [Observed], Geomean Group ([1]; geomean of group, SC + oral): 1051
CD: 1. Treatment A AUC (0-8) × 0.853, Geomean Group [1, 3]: 900
CD: 2. Treatment B AUC (0-4), Geomean Group [1, 4]: 309
CD: 3. Combined 1 + 2 [Estimated], Geomean Group ([1]; human, in vivo): 1209
CD: Observed (C) vs. Additive Ratio, Geomean Group (mean ratio) ([1]; human, in vivo): 0.869
CD: Observed (C) vs. Additive Ratio, Geomean Individual ([1]; human, in vivo): 0.866
CD: 4. Treatment C AUC (0-8) [Observed] ([1]; individual subject (ID), SC 153.6/19.2 LD/CD over 8 h + oral IR LD/CD 100/25 mg tablet at 4 h): 1086
CD: 1. Treatment A AUC (0-8) × 0.853 ([1]; individual subject (ID), Treatment A: 180/22.5 mg LD/CD formulation A, SC infusion over 8 h, AUC × 0.853): 955 and 988 and 925
CD: 2. Treatment B AUC (0-4) ([1]; individual subject (ID), oral IR tablet 100/25 mg LD/CD at 0 h): 318

N[C@@H](Cc1ccc(O)c(O)c1)C(=O)O [LD, L-3,4-dihydroxyphenylalanine]
Synergism ratio, Mean ([2]; animal 115 excluded): 1.57
Synergism ratio, Median ([2]; animal 115 excluded): 1.49
Synergism ratio (actual / predicted LD AUC of oral add-ons) ([2]; individual pig): above 1
Increase of LD plasma exposure by oral add-ons, on top of LD exposure from SC administration alone, versus predicted (average) ([2]; pigs, SC LD-Tyr/CD + oral LD/CD): over 50%
LD: 4. Treatment C AUC (0-8) [Observed], Geomean Group ([1]; geomean of group, SC 153.6/19.2 LD/CD over 8 h + oral 100/25 mg tablet at 4 h): 4817
LD: 1. Treatment A AUC (0-8) × 0.853, Geomean Group [1, 3]: 2412
LD: 2. Treatment B AUC (0-4), Geomean Group [1, 4]: 1458
LD: 3. Combined 1 + 2 [Estimated], Geomean Group ([1]; geomean of group, sum A + B): 3870
LD: Observed (C) vs. Additive Ratio, Geomean Individual ([1]; geomean of individual ratios): 1.240
LD: Observed (C) vs. Additive Ratio, Geomean Group (mean ratio) ([1]; group geomean, Treatment C vs. A+B): 1.245
LD: 1. Treatment A AUC (0-8) × 0.853 ([1]; individual subject (ID), Treatment A: 180/22.5 mg LD/CD formulation A, SC infusion over 8 h, AUC × 0.853 to equal SC dose of Treatment C): 2236 and 2266 and 2218
LD: 4. Treatment C AUC (0-8) [Observed] ([1]; individual subject (ID), Treatment C: 153.6/19.2 LD/CD formulation A SC over 8 h + oral IR LD/CD 100/25 mg tablet at 4 h): 6325 and 5031 and 5059 and 4610 and 3961
LD: 3. Combined 1 + 2 [Estimated] ([1]; individual subject (ID), sum of normalized Treatment A AUC and Treatment B AUC): 3087
